Tests used:
AICARFT [1] = target: T1, AICARFT (Homo sapiens, UniProt P31939); experiment: MS detection of ZMP in low folate media cultured NCI-H460 cells; type: cell-based; set-up: endogenous in cells; host or cells: NCI-H460; details: low levels of folate in the media; summary of Table 16
Experimental: Grow NCI-H460 cells in complete high folate RPMI media (ATCC #30-2001) until cellular confluence reaches ˜80%. Wash cells with PBS, trypsinize, resuspend cells in complete low folate RPMI media (Gibco #27016-021) and perform a cell count. Transfer 1.25×10^6 cells to a T225 flask containing complete low folate RPMI media (40 mL). Grow for seven days. Split cells again with complete low folate media if confluence surpasses 80%. Wash cells with PBS, trypsinize, resuspend cells in complete low folate RPMI media, and perform a cell count. Aliquot 10×10^6 cells in complete low folate media (1 mL)+5% DMSO per cryovial. Use a cell freezing apparatus to freeze cells in a slow and controlled manner in a −80° C. freezer. The next day, transfer cells to liquid nitrogen for long term storage. Thaw frozen cells from cryovial in 37° C. water bath, wash cells once with low folate assay medium: folate free RPMI 1640 medium (Gibco, #27016-021), Glucose (Sigma, #G5767), Hepes (Hyclone, #SH30237.01), Na Pyruvate (Hyclone, #Sh30239.01), 10% FBS (Hyclone, #SH30070.03). Adjust cells concentration to 250,000 cells/mL with medium, plate cells by adding 100 μl/well (25,000 cells/well) into Biocoat poly-D-lysine 96-well plate (BD, #35-4640), and incubate at 37° C. overnight with 5% CO2. Treat cells with 20 μl/well compound diluted in media containing 3% DMSO. Incubate at 37° C. for 16 hours with 5% CO2, then remove the medium and add 1× SureFire Lysis Buffer (50 μL) (PerkinElem, SureFire® Kit component) to each well and incubate at room temperature for 10 min with gentle shaking.
Cells grown in a 96-well plate have the media removed and are lysed in AlphaScreen® SureFire® lysis buffer. Standard curves containing ZMP, dUMP and AICAr at concentrations of 5-10,000 ng/mL are prepared in 40 mM ammonium acetate, pH 4. Aliquots (40 μL) of each standard or sample are combined in a deep 96-well plate with 160 μL of internal standard solution containing ^13C5-ZMP (custom synthesis) and ^13C5-AICAr (custom synthesis) at 100 ng/mL in 40 mM ammonium acetate, pH 4. A Beckman Biomek FX liquid handler is used to add 400 μL of DCM to each sample. Samples are sealed, vortexed for 5 minutes, and placed in the refrigerator for at least 30 minutes. The samples are centrifuged for 10 minutes at 4,000 rpm and 4° C. using an Eppendorf 5810R centrifuge, and the Biomek liquid handler is used to transfer 75 μL of the aqueous layer into a clean 96-well plate. The plates are sealed prior to analysis.
The LC-MS method utilizes a Shimadzu Prominence 20A HPLC system connected to an AB Sciex 5500™ or an AB Sciex 6500™ triple quadrupole mass spectrometer running Analyst® 2.1 software. Extracted samples are separated using a Thermo Hypercarb™ Javelin guard column (2.1×20 mm, […]) with an injection volume of 15 μL and a flow rate of 1 mL/minute. Mobile phase A is a 95:5 mixture of 50 mM ammonium formate, pH 4 and ACN. Mobile phase B is a 70:30 mixture of ACN and MeOH spiked with 0.3% formic acid and 2% concentrated ammonium hydroxide solution (v/v). The gradient is as follows: 0 minutes, 0% B; 0.25 minutes, 0% B; 2.00 minutes, 30% B; 2.01 minutes, 95% B; 3.50 minutes, 95% B, 3.51 minutes, 0% B, 5.00 minutes, stop.
The mass spectrometer is operated in positive ion TurboIonSpray® multiple reaction monitoring mode with a source temperature of 700° C. The precursor and fragment ions for each analyte are: ZMP (339→110), ^13C5-ZMP (344→110), dUMP (309→81), AICAr (259→127) and ^13C5-AICAr (264→127). Calibration curves are constructed by plotting analyte concentrations vs. analyte/internal standard peak area ratios and performing a linear fit of the data using a 1/concentration weighting with AB Sciex MultiQuant™ 2.1 software. Back-calculated ZMP concentrations are fit to a four-parameter logistic equation using ACTIVITYBASE 4.0 to determine IC50 values.

AICARFT [2] = target: T1, AICARFT; experiment: AICARFT enzyme assay (LC-MS of IMP and ZMP); type: biochemical; set-up: made in house; host or cells: E. coli BL21(DE3); details: summary of Table 15
Experimental: Human AICARFT (NCBI accession number: NM_004044.6) cDNA is purchased from Openbiosystem Co. (Cat# MHS1011-62310, Clone ID: 4300570, accession: BC008879). The nucleotide sequence encoding full-length human AICARFT is inserted into pET21d (Novagen) vector with an N-terminal HIS tag. Bacterial BL21(DE3) (Novagen) is used as an expression host, and the induction of protein expression is carried out in 2×TY media with 1 mM IPTG at 18° C. overnight. Cell pellets are stored at −80° C. for subsequent protein purification. Protein purification is conducted at 4° C. Frozen cell pellets are lysed by incubation with stirring in 50 mL cold lysis buffer (50 mM Tris-HCl, pH 7.5, 300 mM NaCl, 10% glycerol, 0.1% Triton X-100, 0.5 mg/mL lysozyme, 5 U/mL benzonase, 1 mM DTT, 10 mM imidazole, and Roche complete EDTA-free protease inhibitor) per liter cell pellet and sonication. Cell lysates are clarified by centrifugation in a Bechman JA-18 rotor for 45 min at 16,500 rpm. The supernatant is incubated with Ni-NTA agarose resin (Qiagen) for 3 hours, followed by an initial batch wash with 10 resin volume of buffer A (50 mM Tris-HCl, pH 7.5, 300 mM NaCl, 10% glycerol, 1 mM DTT, 10 mM imidazole) containing 0.1% Triton X-100. The resin is then packed onto a column and washed with buffer A. The HIS-tagged AICARFT protein is eluted with 10-500 mM imidazole gradient in buffer A. Pooled HIS-AICARFT containing fractions are concentrated, loaded onto a HiLoad 26/600 Superdex 200 column (GE Healthcare Biosciences), and eluted with storage buffer (50 mM Tris-HCl, pH7.5, 150 mM NaCl, 1 mM DTT, 10% Glycerol). Fractions containing HIS-AICARFT are pooled and protein concentration determined by the Bradford assay using BSA as standard. The protein is aliquoted and stored at −80° C.
One of the substrates of the enzyme reaction, 10-formyltetrahydrofolate (10-F-THFA), has limited chemical stability and is therefore synthesized on the same day that the ATIC enzyme assay is performed. The general synthetic route is described in P. Rowe, Methods Enzymol., 18, 733-735, (1971) and J. Rabinowitz, Methods Enzymol., 6, 814-815, (1963). The first step in this synthesis is the conversion of folinic acid (Sigma CAS 1492-18-8) to 5,10-methenyltetrahydrofolic acid (5,10-M-THFA). This conversion typically takes place the day before the enzyme assay is performed, but can be performed up to 1 week earlier and stored at room temperature. To folinic acid (81.6 mg) is added β-mercaptoethanol (2 mL), and 37% concentrated HCl (80 μL), is added. This reaction incubates a minimum of 3 hours at room temperature, with occasional mixing. The color changes from clear to yellow visually, and the complete conversion of folinic acid to 5,10-M-THFA is monitored by spectral analysis using a quartz cuvette. The UV absorption will change from 266 nm to 356 nm during this step. […] On the morning of the assay, the 80 mM 5,10-M-THFA is diluted to 1.6 mM in 40 μM ammonium bicarbonate (made fresh that day). This reaction incubates 3-5 hours at room temperature. The color changes from yellow to clear visually, and the conversion of 5,10-M-THFA to 10-F-THFA is monitored by spectral analysis using a quartz cuvette. The UV absorption will change from 356 nm to 258 nm during this step. […] Test compounds are prepared in DMSO to make a 10 mM stock solution. The stock solution is serially diluted 3-fold in DMSO to obtain a ten-point dilution curve with final compound concentrations ranging from 100 μM to 5 nM. The final DMSO concentration in the assay is 5%.
To each well of a 384-well polypropylene assay plate (NUNC 264573), […] of DMSO (control wells) or compound in DMSO and 9 μL of 55.56 μM ZMP (Sigma-Aldrich CAS 3031-94-5) in water are added. Then, 10 μL of 200 μM 10-F-THFA and 6 nM ATIC enzyme in 40 μM ammonium bicarbonate is added. […] The assay is incubated for 1 hour at room temperature, after which 40 μL of ACN is added to stop the reaction.

T1 sequence (P31939 whole entry): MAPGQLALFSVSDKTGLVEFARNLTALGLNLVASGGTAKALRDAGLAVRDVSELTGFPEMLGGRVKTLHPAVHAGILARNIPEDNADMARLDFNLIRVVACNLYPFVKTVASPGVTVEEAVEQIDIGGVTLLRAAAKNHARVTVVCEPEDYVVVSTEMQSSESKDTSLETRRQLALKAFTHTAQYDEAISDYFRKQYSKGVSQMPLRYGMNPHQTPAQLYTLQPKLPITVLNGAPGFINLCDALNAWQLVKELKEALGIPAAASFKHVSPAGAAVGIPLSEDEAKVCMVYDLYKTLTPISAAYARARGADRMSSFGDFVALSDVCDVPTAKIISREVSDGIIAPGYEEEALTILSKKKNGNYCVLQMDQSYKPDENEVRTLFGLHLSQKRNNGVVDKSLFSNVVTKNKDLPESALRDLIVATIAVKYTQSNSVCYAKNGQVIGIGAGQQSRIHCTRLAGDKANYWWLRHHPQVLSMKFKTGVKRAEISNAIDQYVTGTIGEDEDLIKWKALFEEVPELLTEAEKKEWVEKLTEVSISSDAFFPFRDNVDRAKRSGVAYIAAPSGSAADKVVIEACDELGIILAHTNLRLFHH

## O=c1[nH]ccc2cc(F)c(NS(=O)(=O)c3ccc(N4CC[C@H](O)C4)s3)cc12 [Example 8, N-(6-Fluoro-1-oxo-1,2-dihydroisoquinolin-7-yl)-5-[(3S)-3-hydroxypyrrolidin-1-yl]thiophene-2-sulfonamide]
AICARFT [1]
  AICARFT inhibition in low folate media assay (in words): still inhibit AICARFT
AICARFT [2]
  AICARFT inhibition in enzyme assay (in words): inhibit AICARFT
